Several values for one entry are separate records, joined by “and”; a condition that tells them apart may be missing. Equal values may be shown once.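 Values below derive from 48-hour exposures of cells grown in 96-well plates, with endpoints linearly interpolated between the two concentrations bracketing the appropriate inhibition level. GI50 = concentration required for 50% inhibition of growth. The concentration for full growth arrest is given as TGI.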
Test system: EKVX NSCLC
Test: NCI anticancer screen, dose series, 48 h

Q: `Cc1ccc(/C=N\NC2c3cc(Cl)ccc3Nc3nc(=O)[nH]c(C)c32)cc1` (stereo not given) was tested. Which TGI did it give?
A: > 100 µM

Q: `CCOc1cc(/C=C2/C(C)=NN(c3cccc(Cl)c3)/C2=N/c2nc3ccccc3s2)ccc1O` was tested. Which TGI did it give?
A: > 100 µM

Q: With `O=C(O)COc1ccccc1C(=O)Nc1ccccc1` as the compound, how does the TGI read?
A: > 100 µM

Q: Which TGI does the source give for `O=C1CC2(CCC(O)(c3ccc4ccccc4c3)C(C(=O)c3ccc4ccccc4c3)C2)C(=O)c2ccccc2N1` (stereo not given) here?
A: > 100 µM

Q: Which TGI does the source give for `COc1cc2c(cc1OC)C(C(c1ccccc1)c1ccccc1)N(C)CC2` (stereo not given) here?
A: > 100 µM

Q: `CCOC(=O)N1CCC(N[C@@H]2c3cc4c(cc3C(c3cc(OC)c(O)c(OC)c3)C3C(=O)OC[C@@H]32)OCO4)CC1` (stereo not given in full) was tested. Which TGI did it give?
A: 4.86 µM and 7.1 µM

Q: For `C[N+](C)([O-])CCOc1cc2c(c3ccccc13)-c1ccccc1C2=O`, which TGI is on record?
A: 64.7 µM

Q: With `CCOC(=O)C1S/C(=N\C(=N)N[N+](=O)[O-])N=C1C` (stereo not given) as the compound, how does the TGI read?
A: > 100 µM

Q: Which TGI does the source give for `CCCCCCCCCCCCCCCCNc1cccc2ccccc12` here?
A: > 100 µM

Q: Which TGI does the source give for `O=C1OCC/C1=N/O` here?
A: > 100 µM

Q: `CSC1=N/C(=C\c2ccc(C)cc2)C(=O)N1CN1CCCCC1` was tested. Which TGI did it give?
A: > 100 µM

Q: Which results are given for `C[n+]1c(/C=C/c2c(O)ccc3ccccc23)ccc2ccccc21`?
A: GI50: 4.72 µM; TGI: 12.9 µM

Q: How did the TGI turn out when `O=C(NCP(=O)(Oc1ccccc1)Oc1ccccc1)OCc1ccccc1` was run?
A: > 100 µM

Q: For `Cc1c(/C=N\NC(=S)NCCNC(=S)N/N=C\c2c(C)n(C)n(-c3ccccc3)c2=O)c(=O)n(-c2ccccc2)n1C`, which TGI is on record?
A: > 100 µM

Q: For `O=P(O)(O)C(N=C(Nc1ccccc1)Nc1ccccc1)P(=O)(O)O`, which TGI is on record?
A: > 100 µM

Q: For `C=CCn1c(=O)c(C(=O)Nc2nc(C34CC5CC(CC(C5)C3)C4)cs2)c(O)c2ccccc21`, which TGI is on record?
A: > 100 µM

Q: Which TGI does the source give for `CCOC(=O)c1c(-c2ccc(O)c(OC)c2)c(C#N)c(=S)n(C2OC(CO)C(O)C(O)C2O)c1-c1ccccc1` (stereo not given) here?
A: > 100 µM

Q: For `C=C1CC(C#N)(C#N)[C@H]2C3CCCC3C[C@@H]12` (stereo not given in full) (tested in a mixture with another compound), which TGI is on record?
A: 98.4 µM

Q: With `COC(C)(C)C1(O)CC[C@@H](C)CC1=O` (stereo not given in full) as the compound, how does the TGI read?
A: > 100 µM

Test system: NCI-H23 lung
Test: NCI anticancer screen, dose series, 48 h

Q: How did the TGI turn out when `Cc1ccc(/C=N\NC2c3cc(Cl)ccc3Nc3nc(=O)[nH]c(C)c32)cc1` (stereo not given) was run?
A: > 100 µM

Q: How did the TGI turn out when `CCOc1cc(/C=C2/C(C)=NN(c3cccc(Cl)c3)/C2=N/c2nc3ccccc3s2)ccc1O` was run?
A: 50.7 µM

Q: With `O=C(O)COc1ccccc1C(=O)Nc1ccccc1` as the compound, how does the TGI read?
A: > 100 µM

Q: How did the TGI turn out when `O=C1CC2(CCC(O)(c3ccc4ccccc4c3)C(C(=O)c3ccc4ccccc4c3)C2)C(=O)c2ccccc2N1` (stereo not given) was run?
A: > 100 µM

Q: `COc1cc2c(cc1OC)C(C(c1ccccc1)c1ccccc1)N(C)CC2` (stereo not given) was tested. Which TGI did it give?
A: > 100 µM

Q: How did the TGI turn out when `CCOC(=O)N1CCC(N[C@@H]2c3cc4c(cc3C(c3cc(OC)c(O)c(OC)c3)C3C(=O)OC[C@@H]32)OCO4)CC1` (stereo not given in full) was run?
A: 2.62 µM and 2.69 µM

Q: With `C[N+](C)([O-])CCOc1cc2c(c3ccccc13)-c1ccccc1C2=O` as the compound, how does the TGI read?
A: 74.7 µM

Q: `CCOC(=O)C1S/C(=N\C(=N)N[N+](=O)[O-])N=C1C` (stereo not given) was tested. Which TGI did it give?
A: > 100 µM

Q: `CCCCCCCCCCCCCCCCNc1cccc2ccccc12` was tested. Which TGI did it give?
A: > 100 µM

Q: How did the TGI turn out when `O=C1OCC/C1=N/O` was run?
A: > 100 µM

Q: Which TGI does the source give for `CSC1=N/C(=C\c2ccc(C)cc2)C(=O)N1CN1CCCCC1` here?
A: > 100 µM

Q: `C[n+]1c(/C=C/c2c(O)ccc3ccccc23)ccc2ccccc21` was tested. Which GI50 did it give?
A: 5.1 µM

Q: And the TGI?
A: 13.7 µM

Q: Which TGI does the source give for `O=C(NCP(=O)(Oc1ccccc1)Oc1ccccc1)OCc1ccccc1` here?
A: > 100 µM

Q: How did the TGI turn out when `Cc1c(/C=N\NC(=S)NCCNC(=S)N/N=C\c2c(C)n(C)n(-c3ccccc3)c2=O)c(=O)n(-c2ccccc2)n1C` was run?
A: > 100 µM

Q: `O=P(O)(O)C(N=C(Nc1ccccc1)Nc1ccccc1)P(=O)(O)O` was tested. Which TGI did it give?
A: > 100 µM

Q: Which TGI does the source give for `C=CCn1c(=O)c(C(=O)Nc2nc(C34CC5CC(CC(C5)C3)C4)cs2)c(O)c2ccccc21` here?
A: > 100 µM

Q: `CCOC(=O)c1c(-c2ccc(O)c(OC)c2)c(C#N)c(=S)n(C2OC(CO)C(O)C(O)C2O)c1-c1ccccc1` (stereo not given) was tested. Which TGI did it give?
A: > 100 µM

Q: `COC(C)(C)C1(O)CC[C@@H](C)CC1=O` (stereo not given in full) was tested. Which TGI did it give?
A: > 100 µM

Test system: SNB-75 CNS
Test: NCI anticancer screen, dose series, 48 h

Q: `Cc1ccc(/C=N\NC2c3cc(Cl)ccc3Nc3nc(=O)[nH]c(C)c32)cc1` (stereo not given) was tested. Which TGI did it give?
A: > 100 µM

Q: For `CCOc1cc(/C=C2/C(C)=NN(c3cccc(Cl)c3)/C2=N/c2nc3ccccc3s2)ccc1O`, which TGI is on record?
A: > 100 µM

Q: For `O=C(O)COc1ccccc1C(=O)Nc1ccccc1`, which TGI is on record?
A: > 100 µM

Q: For `O=C1CC2(CCC(O)(c3ccc4ccccc4c3)C(C(=O)c3ccc4ccccc4c3)C2)C(=O)c2ccccc2N1` (stereo not given), which TGI is on record?
A: > 100 µM

Q: `COc1cc2c(cc1OC)C(C(c1ccccc1)c1ccccc1)N(C)CC2` (stereo not given) was tested. Which TGI did it give?
A: 99.5 µM

Q: With `CCOC(=O)N1CCC(N[C@@H]2c3cc4c(cc3C(c3cc(OC)c(O)c(OC)c3)C3C(=O)OC[C@@H]32)OCO4)CC1` (stereo not given in full) as the compound, how does the TGI read?
A: 15.2 µM and 24.8 µM

Q: `C[N+](C)([O-])CCOc1cc2c(c3ccccc13)-c1ccccc1C2=O` was tested. Which TGI did it give?
A: 53.2 µM

Q: For `CCOC(=O)C1S/C(=N\C(=N)N[N+](=O)[O-])N=C1C` (stereo not given), which TGI is on record?
A: > 100 µM

Q: Which TGI does the source give for `CCCCCCCCCCCCCCCCNc1cccc2ccccc12` here?
A: > 100 µM

Q: With `O=C1OCC/C1=N/O` as the compound, how does the TGI read?
A: > 100 µM

Q: With `CC(O)CNC(=O)C(C)Oc1ccc(OCC2CCCCC2)cc1` (stereo not given) as the compound, how does the TGI read?
A: > 100 µM

Q: With `CSC1=N/C(=C\c2ccc(C)cc2)C(=O)N1CN1CCCCC1` as the compound, how does the TGI read?
A: > 100 µM

Q: Which GI50 does the source give for `C[n+]1c(/C=C/c2c(O)ccc3ccccc23)ccc2ccccc21` here?
A: 6.15 µM

Q: And the TGI?
A: 14.2 µM

Q: For `O=C(NCP(=O)(Oc1ccccc1)Oc1ccccc1)OCc1ccccc1`, which TGI is on record?
A: > 100 µM

Q: For `Cc1c(/C=N\NC(=S)NCCNC(=S)N/N=C\c2c(C)n(C)n(-c3ccccc3)c2=O)c(=O)n(-c2ccccc2)n1C`, which TGI is on record?
A: > 100 µM

Q: `C=CCn1c(=O)c(C(=O)Nc2nc(C34CC5CC(CC(C5)C3)C4)cs2)c(O)c2ccccc21` was tested. Which TGI did it give?
A: > 100 µM

Q: With `COC(C)(C)C1(O)CC[C@@H](C)CC1=O` (stereo not given in full) as the compound, how does the TGI read?
A: > 100 µM

Test system: HT29 colon
Test: NCI anticancer screen, dose series, 48 h

Q: `Cc1ccc(/C=N\NC2c3cc(Cl)ccc3Nc3nc(=O)[nH]c(C)c32)cc1` (stereo not given) was tested. Which TGI did it give?
A: > 100 µM

Q: How did the TGI turn out when `CCOc1cc(/C=C2/C(C)=NN(c3cccc(Cl)c3)/C2=N/c2nc3ccccc3s2)ccc1O` was run?
A: > 100 µM

Q: How did the TGI turn out when `O=C(O)COc1ccccc1C(=O)Nc1ccccc1` was run?
A: > 100 µM

Q: With `O=C1CC2(CCC(O)(c3ccc4ccccc4c3)C(C(=O)c3ccc4ccccc4c3)C2)C(=O)c2ccccc2N1` (stereo not given) as the compound, how does the TGI read?
A: > 100 µM

Q: How did the TGI turn out when `COc1cc2c(cc1OC)C(C(c1ccccc1)c1ccccc1)N(C)CC2` (stereo not given) was run?
A: > 100 µM

Q: `CCOC(=O)N1CCC(N[C@@H]2c3cc4c(cc3C(c3cc(OC)c(O)c(OC)c3)C3C(=O)OC[C@@H]32)OCO4)CC1` (stereo not given in full) was tested. Which TGI did it give?
A: 15.5 µM and 10.7 µM

Q: For `C[N+](C)([O-])CCOc1cc2c(c3ccccc13)-c1ccccc1C2=O`, which TGI is on record?
A: > 35.6 µM

Q: How did the TGI turn out when `CCOC(=O)C1S/C(=N\C(=N)N[N+](=O)[O-])N=C1C` (stereo not given) was run?
A: > 100 µM

Q: Which TGI does the source give for `O=C1OCC/C1=N/O` here?
A: > 100 µM

Q: How did the TGI turn out when `CC(O)CNC(=O)C(C)Oc1ccc(OCC2CCCCC2)cc1` (stereo not given) was run?
A: > 100 µM

Q: `CSC1=N/C(=C\c2ccc(C)cc2)C(=O)N1CN1CCCCC1` was tested. Which TGI did it give?
A: > 100 µM

Q: What does the source list for `C[n+]1c(/C=C/c2c(O)ccc3ccccc23)ccc2ccccc21`?
A: GI50: 2.04 µM; TGI: 7.63 µM

Q: How did the TGI turn out when `O=C(NCP(=O)(Oc1ccccc1)Oc1ccccc1)OCc1ccccc1` was run?
A: > 100 µM

Q: Which TGI does the source give for `Cc1c(/C=N\NC(=S)NCCNC(=S)N/N=C\c2c(C)n(C)n(-c3ccccc3)c2=O)c(=O)n(-c2ccccc2)n1C` here?
A: > 100 µM

Q: For `O=P(O)(O)C(N=C(Nc1ccccc1)Nc1ccccc1)P(=O)(O)O`, which TGI is on record?
A: > 100 µM

Q: How did the TGI turn out when `C=CCn1c(=O)c(C(=O)Nc2nc(C34CC5CC(CC(C5)C3)C4)cs2)c(O)c2ccccc21` was run?
A: > 100 µM

Q: How did the TGI turn out when `CCOC(=O)c1c(-c2ccc(O)c(OC)c2)c(C#N)c(=S)n(C2OC(CO)C(O)C(O)C2O)c1-c1ccccc1` (stereo not given) was run?
A: > 100 µM

Q: How did the TGI turn out when `C=C1CC(C#N)(C#N)[C@H]2C3CCCC3C[C@@H]12` (stereo not given in full) (tested in a mixture with another compound) was run?
A: 28.1 µM

Q: For `COC(C)(C)C1(O)CC[C@@H](C)CC1=O` (stereo not given in full), which TGI is on record?
A: > 100 µM

Test system: HS 578T breast
Test: NCI anticancer screen, dose series, 48 h

Q: For `CCOc1cc(/C=C2/C(C)=NN(c3cccc(Cl)c3)/C2=N/c2nc3ccccc3s2)ccc1O`, which TGI is on record?
A: 68.6 µM

Q: `O=C1CC2(CCC(O)(c3ccc4ccccc4c3)C(C(=O)c3ccc4ccccc4c3)C2)C(=O)c2ccccc2N1` (stereo not given) was tested. Which TGI did it give?
A: > 100 µM

Q: Which TGI does the source give for `CSC1=N/C(=C\c2ccc(C)cc2)C(=O)N1CN1CCCCC1` here?
A: > 100 µM

— PubChem BioAssay (NCI)
